Laboratory results published in patent US6117875A, “Pyrido (2,3-B) pyrazine derivatives” (Fujisawa Pharmaceutical Co., Ltd., priority 1995, dated 2000).

What was measured:
[1] = test system: TNF-α production in human mononuclear cells; experiment: Inhibition on TNF-α production in human mononuclear cells; format: cell-based; details: TNF-α by ELISA, human MNC, 1 μg/ml LPS (E. coli), 37°C, 16 hours
Method: Blood was drawn from healthy volunteers with heparin. The mononuclear cell (MNC) fraction was obtained by gradient centrifugation (1800 rpm, 15 minutes), diluted with the same volume of RPMI-1640 culture medium, over Ficoll-Paque (Pharmacia LKB Biotechnology). MNC were washed twice with RPMI-1640. Then, MNC were resuspended in RPMI-1640 culture medium supplemented with 2 mM L-glutamine and 1% fetal bovine serum. MNC were incubated at 37pbC. for 16 hours in 96-well micro culture plate at a concentration of 3×10^5 cells/well with or without 1 μg/ml lipopolysaccharide (LPS) (from E. coli) and various amounts of test compound. At the end of incubation, the supernatant was obtained and its TNF-α active was measured by enzyme-linked immunosorbent assay (ELISA). ELISA was performed with TNF-α ELISA kit (Otsuka Pharmaceutical Co., Ltd.).

[2] = molecular target: U937 phosphodiesterase IV (PDE IV); experiment: Inhibition of U937 phosphodiesterase IV (PDE IV); format: biochemical; details: PDE IV preparation from U937 cells, [3H]-cAMP, 10 μM CI-930 (PDE III inhibitor) present, 30°C, pH 8.0
Method: Harvested U937 was freezed in -80pbC. and throwed to destroy the cell body. The pellet of destroyed cell was washed by Phosphate-buffered saline (PBS).
The washed cell pellet was homogenized with Dounce homogenizer (20 strokes) in homogenizing buffer (0.5% deoxycholate [DOC], 5 mM 2-mercaptoethanol, 1 μM leupeptin, 100 μM PMSF, 20 μM p-tosyl-L-lysine-chloromethyl ketone [TLCK] in PBS). The homogenate was centrifuged at 100,000 g×90 minutes (4pbC.) and the supernatant containing PDE IV activity was dialyzed against dialysis buffer, which was the same component as homogenizing buffer without DOC. The dialyzed supernatant of homogenate was stored in freezer (-80pbC.) as PDE IV enzyme preparation.
Enzyme preparation was diluted in assay buffer (10 mM Tris-HCl, 5 mM MgCl, 1 mM 2-Mercaptoethanol [pH 8.0]). In advance the rate of dilution was choosen every new lot of homogenizing preparation. For blank, a part of the enzyme preparation was boiled for 10 minutes. […]
The reaction tube was preincubated in a water bath (30pbC.) for 5 minutes, then 100 μl [^3 H]-cAMP (37.0 MBq/ml [^3 H]-cAMP: 4 μM cold cAMP=1:800) was added thereto. […] The mixture was centrifuged at 1000 rpm×5 minutes, and then 500 μl of the supernatant was added to 10 ml scintillation fluid in appropriate vial, vortexed, and counted for [^3 H].
The inhibitory activity was calculated according to the following equation: [formula]

SMILES: CC(=O)Nc1ccc(/C=C/C(=O)Nc2cccc(-c3cccc(-n4c(=O)c(Cc5cccnc5)nc5cccnc54)c3)c2)cn1 [Test compound (a), 4-[3-[3-[(E)-3-(6-acetamido-3-pyridyl)acryloylamino]phenyl]phenyl]-2-(3-pyridylmethyl)-3-oxo-3,4-dihydropyrido[2,3-b]pyrazine]
- IC50 [1]: 24 nM
- IC50 [2]: 16 nM
